# Patent US20250147039A1, “Compounds for complexation of rare earth elements and/or s-, p-, d- block metals, their coordination compounds, peptide conjugates, method of their preparation and use thereof” (USTAV ORGANICKE CHEMIE A BIOCHEMIE AV CR V.V.I., priority 2021, published 2025)
# How the values were obtained:
# [1] = Alkali metal dependent formation of 1,5-cz-Lig and 1,4-cz-Lig isomers from Lig at pH 10.2 (Chart 14); type: physicochemical; details: B: 1 day at 80° C., Borate/(M^I)2CO3 buffer pH 10.2; for conversion to 1,4-cz-Lig isomer, Li^I / conversion to 1,5-cz-Lig isomer, Li^I: visible analyte free precipitate
# [2] = Formation of 1,5-cz-[M(Lig)] from Lig and M^III ions (metal dependent click-zip) (Charts 4, 5); type: physicochemical; details: MOPS/NaOH buffer pH 7.0, TD728, TD827 in 50% i-PrOH; for conversion to 1,5-cz-[M(Lig)], Y^III: TD714 sum of two diastereoisomers
# [3] = Formation of 1,5-cz-[Ln(Lig)] from Lig and Ln^III ions (metal dependent click-zip), MOPS/NaOH buffer pH 7.0, analytical HPLC (Charts 1, 2); details: MOPS/NaOH buffer pH 7.0
# [4] = Dissociation of chelates in aq. 6.0M HCl at 80° C. (acid decomplexation kinetic inertness) (Chart 17); type: physicochemical
structure (smiles),measurement,setting,value
C#Cc1cccc(CN2CCN(CP(=O)(O)O)CCN(Cc3cccc(CN=[N+]=[N-])n3)CCN(CP(=O)(O)O)CC2)n1 [TD581],"conversion to 1,4-cz-Lig isomer, Cs^I",[1],31%
same,"conversion to 1,4-cz-Lig isomer, K^I",[1],32%
same,"conversion to 1,4-cz-Lig isomer, Na^I",[1],26%
same,"conversion to 1,4-cz-Lig isomer, Rb^I",[1],32%
same,"conversion to 1,5-cz-Lig isomer, Cs^I",[1],6%
same,"conversion to 1,5-cz-Lig isomer, K^I",[1],7%
same,"conversion to 1,5-cz-Lig isomer, Na^I",[1],25%
same,"conversion to 1,5-cz-Lig isomer, Rb^I",[1],7%
same,"conversion to 1,4-cz-Lig isomer, Li^I",[1],19%
same,"conversion to 1,5-cz-Lig isomer, Li^I",[1],10%
C#Cc1cccc(CN2CCN(CP(=O)(O)OCC)CCN(Cc3cccc(CN=[N+]=[N-])n3)CCN(CP(=O)(O)OCC)CC2)n1 [TD582],"conversion to 1,5-cz-[M(Lig)], Sc^III",[2]; 1 week at 80° C.,0%
same,"conversion to 1,5-cz-[M(Lig)], Y^III",[2]; 1 week at 80° C.,68%
same,"conversion to 1,5-cz-[M(Lig)], Sc^III",[2]; 1 hour at 80° C.,0%
same,"conversion to 1,5-cz-[M(Lig)], Y^III",[2]; 1 hour at 80° C.,11%
same,"conversion to 1,4-cz-Lig isomer, Cs^I",[1],26%
same,"conversion to 1,4-cz-Lig isomer, K^I",[1],25%
same,"conversion to 1,4-cz-Lig isomer, Na^I",[1],2%
same,"conversion to 1,4-cz-Lig isomer, Rb^I",[1],25%
same,"conversion to 1,5-cz-Lig isomer, Cs^I",[1],10%
same,"conversion to 1,5-cz-Lig isomer, K^I",[1],11%
same,"conversion to 1,5-cz-Lig isomer, Na^I",[1],69%
same,"conversion to 1,5-cz-Lig isomer, Rb^I",[1],10%
same,"conversion to 1,4-cz-Lig isomer, Li^I",[1],3%
same,"conversion to 1,5-cz-Lig isomer, Li^I",[1],53%
same,"conversion to 1,5-cz-[Ln(Lig)], Ce^III",[3]; after 1 week at 80° C.,0%
same,"conversion to 1,5-cz-[Ln(Lig)], Ce^III",[3]; after 1 hour at 80° C.,0%
same,"conversion to 1,5-cz-[Ln(Lig)], Dy^III",[3]; after 1 week at 80° C.,85%
same,"conversion to 1,5-cz-[Ln(Lig)], Dy^III",[3]; after 1 hour at 80° C.,18%
same,"conversion to 1,5-cz-[Ln(Lig)], Er^III",[3]; after 1 week at 80° C.,74%
same,"conversion to 1,5-cz-[Ln(Lig)], Er^III",[3]; after 1 hour at 80° C.,15%
same,"conversion to 1,5-cz-[Ln(Lig)], Eu^III",[3]; after 1 week at 80° C.,87%
same,"conversion to 1,5-cz-[Ln(Lig)], Eu^III",[3]; after 1 hour at 80° C.,14%
same,"conversion to 1,5-cz-[Ln(Lig)], Gd^III",[3]; after 1 week at 80° C.,86%
same,"conversion to 1,5-cz-[Ln(Lig)], Gd^III",[3]; after 1 hour at 80° C.,15%
same,"conversion to 1,5-cz-[Ln(Lig)], Ho^III",[3]; after 1 week at 80° C.,79%
same,"conversion to 1,5-cz-[Ln(Lig)], Ho^III",[3]; after 1 hour at 80° C.,16%
same,"conversion to 1,5-cz-[Ln(Lig)], La^III",[3]; after 1 week at 80° C.,0%
same,"conversion to 1,5-cz-[Ln(Lig)], La^III",[3]; after 1 hour at 80° C.,0%
same,"conversion to 1,5-cz-[Ln(Lig)], Lu^III",[3]; after 1 week at 80° C.,26%
same,"conversion to 1,5-cz-[Ln(Lig)], Lu^III",[3]; after 1 hour at 80° C.,5%
same,"conversion to 1,5-cz-[Ln(Lig)], Nd^III",[3]; after 1 week at 80° C.,60%
same,"conversion to 1,5-cz-[Ln(Lig)], Nd^III",[3]; after 1 hour at 80° C.,6%
same,"conversion to 1,5-cz-[Ln(Lig)], Pr^III",[3]; after 1 week at 80° C.,17%
same,"conversion to 1,5-cz-[Ln(Lig)], Pr^III",[3]; after 1 hour at 80° C.,5%
same,"conversion to 1,5-cz-[Ln(Lig)], Sm^III",[3]; after 1 week at 80° C.,86%
same,"conversion to 1,5-cz-[Ln(Lig)], Sm^III",[3]; after 1 hour at 80° C.,12%
same,"conversion to 1,5-cz-[Ln(Lig)], Tb^III",[3]; after 1 week at 80° C.,82%
same,"conversion to 1,5-cz-[Ln(Lig)], Tb^III",[3]; after 1 hour at 80° C.,18%
same,"conversion to 1,5-cz-[Ln(Lig)], Tm^III",[3]; after 1 week at 80° C.,68%
same,"conversion to 1,5-cz-[Ln(Lig)], Tm^III",[3]; after 1 hour at 80° C.,14%
same,"conversion to 1,5-cz-[Ln(Lig)], Yb^III",[3]; after 1 week at 80° C.,59%
same,"conversion to 1,5-cz-[Ln(Lig)], Yb^III",[3]; after 1 hour at 80° C.,12%
C#Cc1cccc(CN2CCNCCN(Cc3cccc(CN=[N+]=[N-])n3)CCN(CC(=O)O)CC2)n1 [TD703],"conversion to 1,4-cz-Lig isomer, Cs^I",[1],20%
same,"conversion to 1,4-cz-Lig isomer, K^I",[1],20%
same,"conversion to 1,4-cz-Lig isomer, Na^I",[1],10%
same,"conversion to 1,4-cz-Lig isomer, Rb^I",[1],20%
same,"conversion to 1,5-cz-Lig isomer, Cs^I",[1],13%
same,"conversion to 1,5-cz-Lig isomer, K^I",[1],14%
same,"conversion to 1,5-cz-Lig isomer, Na^I",[1],75%
same,"conversion to 1,5-cz-Lig isomer, Rb^I",[1],14%
same,"conversion to 1,4-cz-Lig isomer, Li^I",[1],14%
same,"conversion to 1,5-cz-Lig isomer, Li^I",[1],24%
O=C1CN2CCN3CCN(CCN(CC2)Cc2cccc(n2)-c2cnnn2Cc2cccc(n2)C3)CP(=O)(O)[O][Lu][O]1 [TD734],fraction of intact chelate,[4]; 1 month,95%
same,fraction of intact chelate,[4]; 1 week,98%
same,fraction of intact chelate,[4]; 1 hour,100%
same,fraction of intact chelate,[4]; 1 day,100%
NCc1nnn2c1-c1cccc(n1)C[N@]1CC[N@]3CC[N@@](CC[N@@](CC1)CC(=O)[O][Lu][O]C(=O)C3)Cc1cc(-c3ccccc3)cc(n1)C2 [TD735],fraction of intact chelate,[4]; 1 month,98%
same,fraction of intact chelate,[4]; 1 week,99%
same,fraction of intact chelate,[4]; 1 hour,100%
same,fraction of intact chelate,[4]; 1 day,100%
O=C1C[N@@]2CC[N@]3CC[N@@](CC[N@](CC2)Cc2cccc(n2)-c2cnnn2Cc2cc(-c4ccc(C(=O)O)cc4)cc(n2)C3)CC(=O)[O][Lu][O]1 [TD748],fraction of intact chelate,[4]; 1 month,97%
same,fraction of intact chelate,[4]; 1 week,100%
same,fraction of intact chelate,[4]; 1 hour,100%
same,fraction of intact chelate,[4]; 1 day,100%
[N-]=[N+]=NCc1cccc(CN2CCN(CC(=O)O)CCN(Cc3cccc(C#CI)n3)CCN(CC(=O)O)CC2)n1 [TD1204],"conversion to 1,5-cz-[M(Lig)], Sc^III",[2]; 1 week at 80° C.,16%
same,"conversion to 1,5-cz-[M(Lig)], Y^III",[2]; 1 week at 80° C.,22%
same,"conversion to 1,5-cz-[M(Lig)], Sc^III",[2]; 1 hour at 80° C.,0%
same,"conversion to 1,5-cz-[M(Lig)], Y^III",[2]; 1 hour at 80° C.,3%
same,"conversion to 1,5-cz-[Ln(Lig)], Ce^III",[3]; after 1 week at 80° C.,0%
same,"conversion to 1,5-cz-[Ln(Lig)], Ce^III",[3]; after 1 hour at 80° C.,0%
same,"conversion to 1,5-cz-[Ln(Lig)], Dy^III",[3]; after 1 week at 80° C.,17%
same,"conversion to 1,5-cz-[Ln(Lig)], Dy^III",[3]; after 1 hour at 80° C.,2%
same,"conversion to 1,5-cz-[Ln(Lig)], Er^III",[3]; after 1 week at 80° C.,39%
same,"conversion to 1,5-cz-[Ln(Lig)], Er^III",[3]; after 1 hour at 80° C.,6%
same,"conversion to 1,5-cz-[Ln(Lig)], Eu^III",[3]; after 1 week at 80° C.,5%
same,"conversion to 1,5-cz-[Ln(Lig)], Eu^III",[3]; after 1 hour at 80° C.,1%
same,"conversion to 1,5-cz-[Ln(Lig)], Gd^III",[3]; after 1 week at 80° C.,5%
same,"conversion to 1,5-cz-[Ln(Lig)], Gd^III",[3]; after 1 hour at 80° C.,1%
same,"conversion to 1,5-cz-[Ln(Lig)], Ho^III",[3]; after 1 week at 80° C.,23%
same,"conversion to 1,5-cz-[Ln(Lig)], Ho^III",[3]; after 1 hour at 80° C.,4%
same,"conversion to 1,5-cz-[Ln(Lig)], La^III",[3]; after 1 week at 80° C.,0%
same,"conversion to 1,5-cz-[Ln(Lig)], La^III",[3]; after 1 hour at 80° C.,0%
same,"conversion to 1,5-cz-[Ln(Lig)], Lu^III",[3]; after 1 week at 80° C.,83%
same,"conversion to 1,5-cz-[Ln(Lig)], Lu^III",[3]; after 1 hour at 80° C.,18%
same,"conversion to 1,5-cz-[Ln(Lig)], Nd^III",[3]; after 1 week at 80° C.,1%
same,"conversion to 1,5-cz-[Ln(Lig)], Nd^III",[3]; after 1 hour at 80° C.,0%
same,"conversion to 1,5-cz-[Ln(Lig)], Pr^III",[3]; after 1 week at 80° C.,0%
same,"conversion to 1,5-cz-[Ln(Lig)], Pr^III",[3]; after 1 hour at 80° C.,0%
same,"conversion to 1,5-cz-[Ln(Lig)], Sm^III",[3]; after 1 week at 80° C.,4%
same,"conversion to 1,5-cz-[Ln(Lig)], Sm^III",[3]; after 1 hour at 80° C.,1%
same,"conversion to 1,5-cz-[Ln(Lig)], Tb^III",[3]; after 1 week at 80° C.,10%
same,"conversion to 1,5-cz-[Ln(Lig)], Tb^III",[3]; after 1 hour at 80° C.,2%
same,"conversion to 1,5-cz-[Ln(Lig)], Tm^III",[3]; after 1 week at 80° C.,62%
same,"conversion to 1,5-cz-[Ln(Lig)], Tm^III",[3]; after 1 hour at 80° C.,11%
same,"conversion to 1,5-cz-[Ln(Lig)], Yb^III",[3]; after 1 week at 80° C.,76%
same,"conversion to 1,5-cz-[Ln(Lig)], Yb^III",[3]; after 1 hour at 80° C.,15%
